# Experimental data from ChEMBL document CHEMBL3727358, “Inhibitors of inducible form of 6-phosphofructose-2-kinase” (2014).
# Tests used:
# [1] = biological target: T1, 6-phosphofructo-2-kinase/fructose-2,6-bisphosphatase 3 (Homo sapiens, UniProt Q16875); experiment: Inhibition of iPFK2 (unknown origin) assessed as reduction in enzyme-mediated fructose-6-phosphate phosphorylation by measuring ATP consumption incubated for 3 hrs by luciferase-luciferin-coupled chemiluminescence assay
# [2] = biological target: T1, 6-phosphofructo-2-kinase/fructose-2,6-bisphosphatase 3; experiment: Inhibition of iPFK2 (unknown origin) assessed as reduction in enzyme-mediated fructose-6-phosphate phosphorylation by measuring NADH absorbance pre-incubated for 10 mins before ATP/substrate addition followed by incubation for 1 hr by UV-Visible spectrometry based iPFK-2/PPI-PFK coupled enzyme assay
# T1 sequence (Q16875 whole entry): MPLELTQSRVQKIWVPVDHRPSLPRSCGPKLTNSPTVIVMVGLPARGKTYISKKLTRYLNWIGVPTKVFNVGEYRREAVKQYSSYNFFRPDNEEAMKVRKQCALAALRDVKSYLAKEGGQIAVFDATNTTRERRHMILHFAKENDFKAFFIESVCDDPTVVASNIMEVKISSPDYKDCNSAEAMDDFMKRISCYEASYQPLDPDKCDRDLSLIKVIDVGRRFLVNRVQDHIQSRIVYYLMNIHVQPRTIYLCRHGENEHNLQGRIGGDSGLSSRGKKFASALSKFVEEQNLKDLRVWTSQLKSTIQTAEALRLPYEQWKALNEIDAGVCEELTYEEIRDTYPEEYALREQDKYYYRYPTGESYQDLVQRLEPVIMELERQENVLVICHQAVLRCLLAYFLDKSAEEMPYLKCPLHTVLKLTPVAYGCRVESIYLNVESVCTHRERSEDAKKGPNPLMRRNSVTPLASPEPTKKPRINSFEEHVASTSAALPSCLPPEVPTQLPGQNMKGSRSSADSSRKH
Compound,IC50 [1] [nM],IC50 [2] [nM]
COc1cccc(-c2cc(NC(C)c3cccc(-c4cnn(C)c4)c3)nc(C)n2)c1F (centres undefined),500,> 1000
CCc1coc2ccc(-c3cc(N[C@@H](C)c4cccc(Br)c4)nc(C)n3)cc12,> 1000,500
Cc1nc(NC(C)c2cccc(-c3cnn(C)c3)c2)cc(-c2ccc(C(F)(F)F)cc2)n1 (centres undefined),> 1000,> 1000
Cc1nc(NC(C)c2cccc(-c3ccc[nH]3)c2)cc(-c2ccc3ncsc3c2)n1 (centres undefined),> 1000,500
Cc1nc(NC(C)c2cccc(OCc3nc(C(=O)O)co3)c2)cc(-c2ccc3ncsc3c2)n1 (centres undefined),500,> 1000
Cc1nc(NC(C)c2cccc(OCC(F)(F)F)c2)cc(-c2ccc3ncsc3c2)n1 (centres undefined),> 1000,500
Cc1nc(NC(C)c2cccc(OCC(=O)NC3CCCCC3)c2)cc(-c2ccc3ncsc3c2)n1 (centres undefined),500,500
Cc1nc(NCc2ccccc2F)cc(-c2ccc3ncsc3c2)n1,500,> 1000
Cc1nc(NC(C)c2ccc(F)c(Br)c2)cc(-c2ccc3occ(C)c3c2)n1 (centres undefined),> 1000,500
Cc1nc(NC(C)c2cccc(-c3c(C)noc3C)c2)cc(-c2ccc3ncsc3c2)n1 (centres undefined),> 1000,500
Cc1nc(NC(C)c2cccc(N)c2)cc(-c2ccc3ncsc3c2)n1 (centres undefined),> 1000,500
Cc1nc(NC(C)c2cccc(-c3cccc(F)c3)c2)cc(-c2ccc3ncsc3c2)n1 (centres undefined),> 1000,> 1000
Cc1nc(NC(C)c2cccc([N+](=O)[O-])c2)cc(-c2ccc3ncsc3c2)n1 (centres undefined),500,500
COc1ccc(-c2cccc(C(C)Nc3cc(-c4ccc5ncsc5c4)nc(C)n3)c2)cn1 (centres undefined),> 1000,500
Cc1nc(NC(C)c2cccc(OCCS(C)(=O)=O)c2)cc(-c2ccc3ncsc3c2)n1 (centres undefined),> 1000,> 1000
Cc1nc(N[C@@H]2CCCc3ccccc32)cc(-c2cnc3ccccc3c2)n1,500,> 1000
COC(=O)COc1ccc(F)c(CNc2cc(-c3ccc4ncsc4c3)nc(C)n2)c1,> 1000,> 1000
Cc1nc(NC(C)c2cccc(OCC3CCCN(C(=O)OC(C)(C)C)C3)c2)cc(-c2ccc3occ(C)c3c2)n1 (centres undefined),> 1000,500
COc1ccc(F)c(CNc2cc(-c3ccc4ncsc4c3)nc(C)n2)c1,500,> 1000
Cc1cc(COc2ccc(F)c(CNc3cc(-c4ccc5ncsc5c4)nc(C)n3)c2)n(C)n1,> 1000,> 1000
CCOC(=O)c1cncc(-c2cccc(C(C)Nc3cc(-c4ccc5ncsc5c4)nc(C)n3)c2)c1 (centres undefined),> 1000,500

Compound,IC50 [1] [nM],IC50 [2] [nM]
Cc1nc(NCC2CCCN(C(=O)C3CCCC3)C2)cc(-c2ccc3ncsc3c2)n1 (centres undefined),500,> 1000
Cc1ccc(OCc2noc(COc3cccc(C(C)Nc4cc(-c5ccc6ncsc6c5)nc(C)n4)c3)n2)cc1 (centres undefined),> 1000,> 1000
Cc1cc(-c2cccc(C(C)Nc3cc(-c4ccc5ncsc5c4)nc(C)n3)c2)ccn1 (centres undefined),500,500
Cc1nc(NC(C)c2cccc(-c3cnn(C)c3)c2)cc(-c2ccc(F)c(C)c2)n1 (centres undefined),> 1000,500
Cc1nc(N[C@@H](C)c2ccccc2)cc(-c2ccc3ncsc3c2)n1,> 1000,> 1000
Cc1nc(NC(C)c2cccc(-c3ccoc3)c2)cc(-c2ccc3ncsc3c2)n1 (centres undefined),> 1000,> 1000
Cc1nc(NCC2CCCNC2)cc(-c2ccc3ncsc3c2)n1 (centres undefined),> 1000,> 1000
Cc1nc(NC(C)c2cccc(-c3ccc(N(C)C)nc3)c2)cc(-c2ccc3ncsc3c2)n1 (centres undefined),500,500
Cc1nc(NC(C)c2cccc(-c3ccsc3)c2)cc(-c2ccc3ncsc3c2)n1 (centres undefined),> 1000,> 1000
Cc1ccc(COc2cccc(C(C)Nc3cc(-c4ccc5ncsc5c4)nc(C)n3)c2)cc1 (centres undefined),> 1000,> 1000
Cc1nc(N[C@H](C)c2cccc(-n3cnnn3)c2)cc(-c2ccc3occ(C)c3c2)n1,500,> 1000
COC(=O)c1coc(COc2cccc(C(C)Nc3cc(-c4ccc5ncsc5c4)nc(C)n3)c2)n1 (centres undefined),> 1000,> 1000
Cc1nc(NC(C)c2ccccc2C)cc(-c2ccc3occ(C)c3c2)n1 (centres undefined),> 1000,> 1000
Cc1nc(NCC2CCCN(C(=O)C3(C)CC3)C2)cc(-c2ccc3ncsc3c2)n1 (centres undefined),500,> 1000
Cc1nc(NC(C)c2cccc(-c3cnn(C)c3)c2)cc(-c2ccc(C(C)C)cc2)n1 (centres undefined),> 1000,500
Cc1nc(NC(C)c2cccc(OCCn3cccn3)c2)cc(-c2ccc3ncsc3c2)n1 (centres undefined),> 1000,500
COc1cccc([C@H](C)Nc2cc(-c3cnc4ccn(C)c4c3)nc(C)n2)c1,> 1000,> 1000
Cc1nc(NCc2cc(Br)ccc2F)cc(-c2ccc3ncsc3c2)n1,> 1000,> 1000
Cc1nc(N[C@H](C)c2ccc(F)c(-c3cnn(C)c3)c2)cc(-c2ccc3occ(C)c3c2)n1,> 1000,500
Cc1nc(NC(C)c2cccc(-c3cccnc3F)c2)cc(-c2ccc3ncsc3c2)n1 (centres undefined),> 1000,500
COC(=O)COc1cccc(C(C)Nc2cc(-c3ccc4ncsc4c3)nc(C)n2)c1 (centres undefined),> 1000,> 1000
